In general, Ki refers to a dissociation constant, usually derived from enzyme kinetics or from competition with a known ligand.

Ki data for 16 compounds are collected here from patent US20090215857A1 (Pfizer Products Inc., priority 2005, published 2009).

Where a name gives a salt, the structure may show the parent alone.

Assay [1] concerns the target T1, human norepinephrine transporter (Homo sapiens, UniProt P23975).
T1 construct: expressed in transfected cells; host or cells: HEK-293
Put plainly: hNET receptor binding ([125I]-RTI-55 radioligand). As to conditions: membranes of HEK-293 cells transfected with human norepinephrine transporter cDNA; 50 pM [125I]-RTI-55; IC50 converted by Cheng-Prusoff; read-out: NET Ki. Here is the method:
Cell pastes of HEK-293 cells transfected with a human norepinephrine transporter cDNA were prepared. The cell pastes were resuspended in 400 to 700 ml of Krebs-HEPES assay buffer (25 mM HEPES, 122 mM NaCl, 3 mM KCl, 1.2 mM MgSO4, 1.3 mM CaCl2, and 11 mM glucose, pH 7.4) with a Polytron homogenizer at setting 7 for 30 seconds. Aliquots of membranes (5 mg/ml protein) were stored in liquid nitrogen until used.
The binding assay was set up in Beckman deep-well polypropylene plates with a total volume of 250 μl containing: test compound (10^−5M to 10^−12M), cell membranes, and 50 pM [^125I]-RTI-55 (Perkin Elmer, NEX-272; specific activity 2200 Ci/mmol). The reaction was incubated by gentle agitation for 90 minutes at room temperature and was terminated by filtration through Whatman GF/C filter plates using a Brandel 96-well plate harvester. Scintillation fluid (100 μl) was added to each well, and bound [^125I]-RTI-55 was determined using a Wallac Trilux Beta Plate Counter. Test compounds were run in duplicate, and specific binding was defined as the difference between binding in the presence and absence of 10 μM desipramine.
Excel and GraphPad Prism software were used for data calculation and analysis. IC50 values were converted to K, values using the Cheng-Prusoff equation.

Assay [2] deals with T2, human serotonin transporter (Homo sapiens, UniProt P31645).
T2 construct: expressed in transfected cells; host or cells: HEK-293
Put plainly: hSERT receptor binding ([125I]-RTI-55 radioligand). The conditions noted are these: membranes of HEK-293 cells transfected with human serotonin transporter cDNA; 50 pM [125I]-RTI-55; IC50 converted by Cheng-Prusoff; read-out: SERT Ki. Here is the method:
Cell pastes of HEK-293 cells transfected with a human serotonin transporter cDNA were prepared. The cell pastes were resuspended in 400 to 700 ml of Krebs-HEPES assay buffer (25 mM HEPES, 122 mM NaCl, 3 mM KCl, 1.2 mM MgSO4, 1.3 mM CaCl2, and 11 mM glucose, pH 7.4) with a Polytron homogenizer at Setting 7 for 30 seconds. Aliquots of membranes (˜2.5 mg/ml protein) were stored in liquid nitrogen until used.
Assays were set up in FlashPlates pre-coated with 0.1% PEI in a total volume of 250 μl containing: test compound (10^−5M to 10^−12M), cell membranes, and 50 pM [^125I]-RTI-55 (Perkin Elmer, NEX-272; specific activity 2200 Ci/mmol). The reaction was incubated and gently agitated for 90 minutes at room temperature, and terminated by removal of assay volume. Plates were covered, and bound [^125I]-RTI-55 was determined using a Wallac Trilux Beta Plate Counter. Test compounds were run in duplicate, and specific binding was defined as the difference between binding in the presence and absence of 10 μM citalopram.
Excel and GraphPad Prism software were used for data calculation and analysis. IC50 values were converted to Ki values using the Cheng-Prusoff equation.

T1 sequence (P23975 whole entry): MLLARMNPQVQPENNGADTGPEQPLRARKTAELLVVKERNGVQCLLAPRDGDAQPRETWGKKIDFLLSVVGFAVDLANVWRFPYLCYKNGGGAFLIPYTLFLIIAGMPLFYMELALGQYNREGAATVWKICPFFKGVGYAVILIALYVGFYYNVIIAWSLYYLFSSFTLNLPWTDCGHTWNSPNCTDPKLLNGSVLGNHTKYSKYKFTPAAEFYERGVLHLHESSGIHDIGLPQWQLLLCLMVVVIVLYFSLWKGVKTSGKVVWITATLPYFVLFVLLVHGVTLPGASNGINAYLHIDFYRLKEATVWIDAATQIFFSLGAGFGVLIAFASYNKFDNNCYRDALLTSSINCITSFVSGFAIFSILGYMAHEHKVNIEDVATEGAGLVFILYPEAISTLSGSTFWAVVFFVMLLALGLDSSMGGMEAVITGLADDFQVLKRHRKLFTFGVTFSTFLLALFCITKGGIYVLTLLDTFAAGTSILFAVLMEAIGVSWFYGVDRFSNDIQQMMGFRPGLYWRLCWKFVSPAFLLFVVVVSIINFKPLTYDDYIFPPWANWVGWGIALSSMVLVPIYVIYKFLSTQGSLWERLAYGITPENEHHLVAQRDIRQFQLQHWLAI
T2 sequence (P31645 whole entry): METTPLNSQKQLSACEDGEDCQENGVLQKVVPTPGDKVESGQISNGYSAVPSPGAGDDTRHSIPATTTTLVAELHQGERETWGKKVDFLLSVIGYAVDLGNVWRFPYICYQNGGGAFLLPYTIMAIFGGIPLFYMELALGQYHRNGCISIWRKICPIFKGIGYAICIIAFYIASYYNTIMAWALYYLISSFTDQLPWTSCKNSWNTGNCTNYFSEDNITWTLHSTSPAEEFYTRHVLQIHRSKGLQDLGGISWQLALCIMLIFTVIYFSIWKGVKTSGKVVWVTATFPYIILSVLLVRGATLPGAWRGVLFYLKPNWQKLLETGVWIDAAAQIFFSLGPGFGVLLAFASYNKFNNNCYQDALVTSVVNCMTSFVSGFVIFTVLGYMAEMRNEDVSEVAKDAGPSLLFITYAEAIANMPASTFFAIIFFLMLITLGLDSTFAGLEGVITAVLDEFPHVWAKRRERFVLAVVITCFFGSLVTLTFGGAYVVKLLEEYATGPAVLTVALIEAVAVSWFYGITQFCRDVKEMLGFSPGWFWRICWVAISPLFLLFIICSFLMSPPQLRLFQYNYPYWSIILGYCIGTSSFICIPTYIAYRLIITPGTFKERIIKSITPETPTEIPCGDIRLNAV

As to `COc1ccc(Cl)cc1-c1ccc(F)cc1CO[C@H]1CCNC1` [Example D-61, (S)-3-(5′-Chloro-4-fluoro-2′-methoxy-biphenyl-2-ylmethoxy)-pyrrolidine], the Ki in assay [1] amounted to 993 nM; in assay [2], 794 nM.
Take `COc1ccccc1-c1ccccc1CO[C@H]1CCNC1` [Example D-24, (S)-3-(2′-Methoxy-biphenyl-2-ylmethoxy)-pyrrolidine]: the values for the Ki in assay [1] and in assay [2] were 230 nM and 1260 nM, respectively.
Turning to `Fc1ccc(-c2ncccc2CO[C@H]2CCNC2)cc1F` [Example B-3, (S)-2-(3,4-Difluoro-phenyl)-3-(pyrrolidin-3-yloxymethyl)-pyridine fumarate], the Ki is 310 nM in assay [1] and 1200 nM in assay [2].
The corresponding values for `CC(=O)c1ccc(-c2ccccc2CO[C@H]2CCNC2)cc1` [Example D-47, (S)-1-[2′-(Pyrrolidin-3-yloxymethyl)-biphenyl-4-yl]-ethanone] are 4120 nM and 906 nM.
The corresponding values for `CC(C)Oc1ccccc1-c1ccccc1CO[C@H]1CCNC1` [Example A-19, (S)-3-(2′-Isopropoxy-biphenyl-2-ylmethoxy)-pyrrolidine fumarate] are 111 nM and 752 nM.
The corresponding values for `OCc1cccc(-c2ccccc2CO[C@H]2CCNC2)c1` [Example D-38, (S)-[2′-(Pyrrolidin-3-yloxymethyl)-biphenyl-3-yl]-methanol] are 1190 nM and 39.3 nM.
Regarding `CCc1ccc(-c2ccc(F)cc2CO[C@H]2CCNC2)cc1` [Example D-76, (S)-3-(4′-Ethyl-4-fluoro-biphenyl-2-ylmethoxy)-pyrrolidine], the values for the Ki in assay [1] and in assay [2] were 1280 nM and 734 nM, respectively.
For the compound `COc1ccc(-c2ccccc2CO[C@H]2CCNC2)cc1F` [Example D-21, (S)-3-(3′-Fluoro-4′-methoxy-biphenyl-2-ylmethoxy)-pyrrolidine], the Ki in assay [1] is 113 nM; in assay [2], 431 nM.
Turning to `Cc1ccc(-c2ccc(F)cc2CO[C@H]2CCNC2)cc1C` [Example D-104, (S)-3-(4-Fluoro-3′,4′-dimethyl-biphenyl-2-ylmethoxy)-pyrrolidine], the Ki in assay [1] was 112 nM; in assay [2] it was 220 nM.
The corresponding values for `Fc1ccc(-c2ccc(F)c(F)c2)c(CO[C@H]2CCNC2)c1` [Example D-71, (S)-(4,3′,4′-Trifluoro-biphenyl-2-ylmethoxy)-pyrrolidine] are 60 nM and 108 nM.
For `N#Cc1cccc(-c2cccc(F)c2F)c1CO[C@H]1CCNC1` [Example E-3, (S)-2′,3′-Difluoro-2-(pyrrolidin-3-yloxymethyl)-biphenyl-3-carbonitrile fumarate] the same measures were 560 nM and 1570 nM.
For `Fc1ccc(-c2ccccc2CO[C@@H]2CCNC2)c(F)c1` [Example A-20, (R)-3-(2′,4′-Difluoro-biphenyl-2-ylmethoxy)-pyrrolidine fumarate] the same measures were 127 nM and 313 nM.
For the compound `Cc1ccc(-c2ccc(F)cc2CO[C@H]2CCNC2)cc1` [Example D-63, (S)-3-(4-Fluoro-4′-methyl-biphenyl-2-ylmethoxy)-pyrrolidine], the Ki in assay [1] turned out to be 36.6 nM; in assay [2], 423 nM.
For `CCOc1cccc(-c2ccccc2CO[C@H]2CCNC2)c1` [Example D-1, (S)-3-(3′-Ethoxy-biphenyl-2-ylmethoxy)-pyrrolidine] the same measures were 4.84 nM and 39.2 nM.
The corresponding values for `FC(F)(F)c1ccc(-c2ccccc2CO[C@H]2CCNC2)cc1` [Example D-55, (S)-3-(4′-Trifluoromethyl-biphenyl-2-ylmethoxy)-pyrrolidine] are no less than 10000 nM and 201 nM.
The corresponding values for `Fc1ccc(-c2ccc(F)cc2CO[C@H]2CCNC2)cc1` [Example D-74, (S)-3-(4,4′-Difluoro-biphenyl-2-ylmethoxy)-pyrrolidine] are 43.4 nM and 146 nM.
